pIC50, pKi: −log10 of the molar value.

This is an account of results in the Kinase Knowledgebase extract (Sharma et al. 2016).

Test [1] addresses EGFR (human) (UniProt P00533). The settings on record: a431.
Test [2] has as its target EGFR (human) (UniProt P00533). The settings on record: A431.
Test [3] concerns the target EGFR (mouse) (UniProt P00533). The note with it: balb/mk cells.
The target in test [4] is EGFR (human) (UniProt P00533). The settings on record: for inhibition: a431, concentration not given here.
Test [5] addresses EGFR (UniProt P00533).
Test [6] addresses EGFR (UniProt P00533). This is another data set of the same source.
In test [7] the target is EGFR (UniProt P00533). The source holds these as a separate data set.
Test [8] has as its target EGFR (human) (UniProt P00533). The settings on record: A431. The source holds these as a separate data set.

EGFR, sequence (P00533 whole entry, looked up): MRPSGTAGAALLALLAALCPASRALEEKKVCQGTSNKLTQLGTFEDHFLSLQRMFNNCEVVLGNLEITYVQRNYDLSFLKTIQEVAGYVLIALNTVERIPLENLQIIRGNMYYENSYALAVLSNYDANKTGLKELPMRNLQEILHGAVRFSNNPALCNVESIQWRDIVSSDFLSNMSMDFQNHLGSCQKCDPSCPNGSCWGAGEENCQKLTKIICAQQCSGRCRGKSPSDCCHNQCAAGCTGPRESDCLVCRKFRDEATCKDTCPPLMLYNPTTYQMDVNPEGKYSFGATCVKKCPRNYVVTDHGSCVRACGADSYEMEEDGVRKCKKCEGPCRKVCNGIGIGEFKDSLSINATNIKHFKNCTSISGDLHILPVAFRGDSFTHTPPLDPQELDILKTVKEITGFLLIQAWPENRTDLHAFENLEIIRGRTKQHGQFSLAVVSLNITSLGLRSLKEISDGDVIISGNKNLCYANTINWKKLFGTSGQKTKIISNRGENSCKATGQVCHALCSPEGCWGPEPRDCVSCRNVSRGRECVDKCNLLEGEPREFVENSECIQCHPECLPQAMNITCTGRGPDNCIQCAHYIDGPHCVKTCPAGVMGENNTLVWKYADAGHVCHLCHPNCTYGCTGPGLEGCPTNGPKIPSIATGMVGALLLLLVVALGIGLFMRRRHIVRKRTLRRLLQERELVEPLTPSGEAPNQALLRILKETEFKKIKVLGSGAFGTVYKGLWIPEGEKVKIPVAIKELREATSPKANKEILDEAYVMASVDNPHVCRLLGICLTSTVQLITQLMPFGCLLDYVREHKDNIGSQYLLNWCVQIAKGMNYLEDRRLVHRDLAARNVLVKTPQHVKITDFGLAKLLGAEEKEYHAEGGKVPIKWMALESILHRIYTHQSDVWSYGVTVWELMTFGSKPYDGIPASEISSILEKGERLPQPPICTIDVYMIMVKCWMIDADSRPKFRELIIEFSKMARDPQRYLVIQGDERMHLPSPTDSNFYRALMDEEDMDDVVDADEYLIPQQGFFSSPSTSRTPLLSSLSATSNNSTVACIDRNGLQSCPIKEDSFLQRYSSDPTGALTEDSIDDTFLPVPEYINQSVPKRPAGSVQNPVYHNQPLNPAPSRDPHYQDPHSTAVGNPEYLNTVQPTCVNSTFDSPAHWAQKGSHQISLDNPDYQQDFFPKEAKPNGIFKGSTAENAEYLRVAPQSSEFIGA
EGFR (human), sequence (P00533 whole entry, looked up): as above

As a reminder, the pIC50 is the negative decadic logarithm of the IC50, by convention in mol/L. Lower therefore signals a large IC50. As usually defined, the inhibition is the share of the control response that was lost under treatment. Take `C=CCN1C(=O)C(C)SC1=NN=C1SCC(=O)N1C` (centres undefined): the negative logarithm of the IC50 (pIC50) in test [1], in test [2] and in test [3] was < 4.30 in each case. In test [4], the inhibition is 0%.
For `C=C(C)CN1C(=O)C(OS(=O)(=O)O)SC1=NN=C1SCC(=O)N1C` (centres undefined), the pIC50 was < 4.30 in test [1], 4.00 in test [2] and < 4.30 in test [3]. In test [4], this compound registered an inhibition of 0%.
What is called pKi is the negative decadic logarithm of the Ki, by convention in mol/L. Lower therefore signals a large Ki. In the case of `N#CC(C#N)=Cc1cc(O)cc(O)c1`, the pIC50 in test [5] is 4.46; in test [2], 4.38. This compound had a pKi in test [5] of 4.96.
Consider `O=CN/C=C/c1cc(O)ccc1O`, for which, in test [2], the pIC50 was 4.90. In test [6], this compound had a pKi of 5.22.
On to `C=C(C)CN1C(=O)C(CN(C)C)SC1=NN=C1SCC(=O)N1C` (centres undefined), for which the pIC50 in test [1] was 5.79; in test [2], 5.70; in test [3], 6.01.
In test [5], `CC(=S)N/C(C#N)=C/c1ccc(O)c(O)c1` had a pIC50 of 5.62 and a pKi of 6.07.
In test [7], `CCOc1cc(/C=C(/C#N)C(N)=O)cc(Cc2ccccc2)c1O` gave a pIC50 of 6.00 and a pKi of 5.68. In test [2], this compound showed a pIC50 of 5.05.
`C=C(C)CN1C(=O)C(O)SC1=NN=C1SCC(=O)N1C` (centres undefined): the results for the negative-log IC50 (pIC50) in test [1], in test [2] and in test [3] were < 4.30, < 4.00 and < 4.30, respectively. This compound also gave an inhibition in test [4] of 0%.
In the case of `C=CCN1C(=O)C(=C)SC1=NN=C1SCC(=O)N1C`, the pIC50 in test [1] is 5.82; in test [2] it was 5.22; in test [3], 5.99.
Take `C=C(C)CN1C(=O)C(CO)SC1=NN=C1SCC(=O)N1C` (centres undefined): the pIC50 is 4.39 in test [1], < 4.30 in test [2] and < 4.30 in test [3]. This compound also showed an inhibition in test [4] of 0%.
Turning to `C=CCN1C(=O)C(CC(=O)O)SC1=NN=C1SCC(=O)N1C` (centres undefined), the results for the pIC50 in test [1], in test [2] and in test [3] were < 4.30, < 4.00 and < 4.30, respectively. Moreover, the inhibition in test [4] was determined as 0%.
In the case of `C=C(C)CN1C(=O)CSC1=NN=C1SCC(=O)N1C`, the pIC50 in test [1], in test [2] and in test [3] was < 4.30 in each case. In addition, the inhibition in test [4] was 0%.
In the case of `C=C(C)CN1C(=O)C(=C)SC1=NN=C1SCC(=O)N1C`, the pIC50 in test [8] is 5.30; in test [1] it was 5.81; in test [2], 6.00; in test [3] it was 6.00; in test [4] (a431), 4.60 to 4.90.
Consider `C=C(C)CN1C(=O)C(C)SC1=NN=C1SCC(=O)N1C` (centres undefined), for which the pIC50 in test [1], in test [2] and in test [3] was < 4.30 in each case. For the same compound, the inhibition in test [4] turned out to be 0%.
